Experimental data from patent US20020006915A1, “Use of COX-2 inhibitors to treat sepsis, complications thereof, and EP receptor modulation” (priority 2000, published 2002).
Marks after values point to notes of the source that are not given here.

Assays:
[1] = system: COX-2 mRNA; assay: COX-2 mRNA in splenic macrophages by RT-PCR (NS-398 over 7 days); format: in vivo, BALB/c mice; settings: trauma + NS-398 over 7 days
Experimental: Isolated splenic macrophages were treated with LPS (10 ng/mL) for 6 hours. Extraction of mRNA was done with an RNA extraction kit (Qiagen, Inc.).

[2] = Body weight and splenocyte counts 7 days after trauma (NS-398 twice a day over 7 days); format: in vivo, BALB/c mice; settings: for Body Wt.: day 7
Experimental: (§1) Animals, Experimental Protocol, NS-398 preparation were as described in Example I. Macrophages were prepared as described initially under “Macrophage Preparation ” in Example I. After lysis of erythrocytes with ammonium chloride solution and centrifugation as described in Example I, macrophages were further prepared by resuspending the pellet in RPMI-1640 (Gibco BRL, Life Technologies Inc) containing 2 mmol/L L-glutamine, 100 U/mL penicillin, 100 μg/mL streptomycin, 0.25 μg/mL amphotericin B, and 10% heat-inactivated fetal calf serum (Gibco BRL, Life Technologies Inc), counted via hemocytometer and diluted to a final concentration of 5×10^6 cells/mL, and plated in 96 well plates in a volume of 0.2 mL per well. After allowing macrophages to adhere for 2 hours, the remaining cells were suctioned off and the macrophages were cultured in the +/−1 ng LPS 055:B5 (Sigma, St. Louis, Mo.) per mL at 37° C. in 5% carbon dioxide incubators. Supernatants were harvested at 24 hours and stored at −70° C. until analysis for batch enzyme-linked immunosorbent assay processing to determine prostaglandin and cytokine production.
Body weight and splenocyte recovery after injury±NS-398 were recorded.
(§2) BALB/C mice (n=8/group) were given 10mg/kg NS398 intraperitoneally BID for 7 days, starting immediately after sham injury or trauma (femur fracture+40% hemorrhage). Four groups, sham+placebo (C); sham+NS398 (CN); trauma+placebo (T); or trauma+NS398 (TN) were studied. On day 7 after trauma, mice were sacrificed and splenic macrophages evaluated for PGE2, TNF-α and NO production (via Student's t-test). In a separate study, mice (n=10-11/group) were traumatized and given NS398 for 7 days. On day 7, cecal ligation and puncture was performed, and mice evaluated for survival over 3 weeks (via Log-rank test).

[3] = system: plasma PGE2; assay: Plasma PGE2 of mice at 6 h after traumatic injury; format: in vivo, BALB/c mice; settings: for PGE2 levels at 6 h: pooled serum n=6
Experimental: Vehicle mice were injected with a 4% DMSO solution. To evaluate the efficacy of NS-398 on plasma PGE2 levels, mouse blood was collected at 6 hours after injury±treatment. […] At 6 hours after trauma, plasma PGE2 levels were increased from […] to 49,733 […]).

[4] = system: BALB/c mice given a septic challenge by cecal ligation and puncture; assay: Survival after septic challenge (cecal ligation and puncture) on day 7 after trauma, 3 doses of NS-398 within 24 h; format: in vivo
Source text: A value of p<0.05 was considered significant. […] A value of p<0.05 was considered significant.

[5] = system: LPS stimulated splenic macrophages; assay: Mediator production (PGE2, LTB4, TNF-α, NO, IL-6) by LPS stimulated splenic macrophages 7 days after trauma, NS-398 twice a day over 7 days; format: in vivo, BALB/c mice; settings: for NO: mean ± SEM
Experimental: as §1
NO was measured indirectly by NO2^− concentration using the Greiss reagent system (Promega, Madison, Wis). Protein was quantified using the BCA protein reagent (Pierce, Rockford, Ill.) and all measurements were normalized to protein content per well.
as §2

[6] = system: IκB-α; assay: Western blot of cytosolic IκB-α in splenic macrophages; format: in vivo, BALB/c mice; settings: NS-398 treatment after trauma, over 7 days
Experimental: Cytoplasmic fractions were collected after splenic macrophages were stimulated (as described above) and then boiled in equal volumes of loading buffer (125 mM Tris-HCl, pH 6.8, 4% sodium dodecyl sulfate, 20% glycerol and 10% 2-mercaptoethanol) for 3 minutes and were then separated by electrophoresis on a tris-glycine gradient gel. The proteins were then transferred to nitrocellulose membranes (Xcell II Blot Module; Novex). The membranes were blocked with 10% non-fat dried milk in Tris-buffered saline (TBS), pH 7.6, containing 0.05% tween-20 (TTBS) for 1 hour and then incubated with a polyclonal rabbit anti-mouse antibody to IκB-α (Santa Cruz Laboratories) for 45 minutes. After washing twice in TTMS, the blots were incubated with a peroxidase-conjugated goat anti-rabbit IgG secondary antibody for 15 minutes. The blots were washed in TTBS for 5 minutes three times, then in TBS for 5 minutes, incubated in enhanced chemiluminescence reagents (ECL, Amersham Life Sciences, Buckingham, England) and exposed on radiographic film (Kodak, Rochester, N.Y.).

[7] = system: plasma PGE2; assay: Plasma PGE2 levels at 1 and 7 days after trauma; format: in vivo, BALB/c mice
Experimental: Plasma PGE2 levels were determined in separate experiments by sacrificing mice at 1 day and at 7 days after treatment with NS-398. There was an increase in PGE2 levels at 1 and 7 days after traumatic injury compared with uninjured controls.

[8] = C + NS398, 10 mg/kg i.p. BID for 7 days
[9] = T + NS398, 10 mg/kg i.p. BID for 7 days
[10] = injured mice + NS-398 over 7 days vs untreated injured, P<0.05

**Q.** With `CS(=O)(=O)Nc1ccc([N+](=O)[O-])cc1OC1CCCCC1` [NS-398, N-(2-cyclohexyloxy-4-nitrophenyl)methanesulfonamide] as the molecule, how does the “COX-2 mRNA levels” value [1] read?
**A.** The value was “decreased this induction”.

**Q.** And the “Body Wt.” value ([2]; Control + NS-398, twice a day over 7 days)?
**A.** Its value is 18.3 ± 0.3 g.

**Q.** And the “Body Wt.” value ([2]; Trauma + NS-398, twice a day over 7 days)?
**A.** Its value is 16.7 ± 0.7 g.

**Q.** And the “difference in body weight” value ([2]; control versus trauma+NS-398 mice, 7 days after trauma)?
**A.** The value was “no significant difference”.

**Q.** What about the “PGE2 levels at 6 h” value ([3]; Control + NS-398, plasma) of the same molecule?
**A.** Its value is 35,961 pg/ml.

**Q.** And the “PGE2 levels at 6 h” value ([3]; Trauma + NS-398, plasma)?
**A.** Its value is 29,902 pg/ml.

**Q.** What about the plasma PGE2 levels ([3]; injured mice treated with NS-398 (TN), 6 hours after trauma) of the same molecule?
**A.** Its plasma PGE2 levels is 29900 pg/mL.

**Q.** And the survival ([4]; T + NS, 3 i.p. injections of 10 mg/kg, CLP on day 7, n=10-12)?
**A.** The survival was 92%#.

**Q.** And the survival ([4]; control mice treated with NS-398)?
**A.** The survival was 66%.

**Q.** What about the survival ([4]; traumatized mice treated with NS-398) of the same molecule?
**A.** Its survival is 92%.

**Q.** And the TNF-α [5, 8]?
**A.** The TNF-α was 2.6 ± 0.3 pg/μg protein.

**Q.** What about the NO [5, 8] of the same molecule?
**A.** Its NO is 54.8 ± 2.1 nmol/μg protein.

**Q.** And the “LTB4 levels (in words)” value ([5]; NS-398 given after injury, over 7 days)?
**A.** The value was “did not restore LTB4 levels to those seen in control”.

**Q.** And the TNF-α [5, 9]?
**A.** The TNF-α was 2.6 ± 0.3 pg/μg protein.

**Q.** What about the NO [5, 9] of the same molecule?
**A.** The NO was 48.0 ± 3.3 nmol/μg protein.

**Q.** What about the PGE2 production ([5]; injured mice + NS398 (TN), 10 mg/kg i.p. BID for 7 days) of the same molecule?
**A.** Its PGE2 production is 3.1±0.4 pg/μg protein.

**Q.** What about the “IL-6 production (in words)” value [5, 10] of the same molecule?
**A.** The value was “significantly attenuated production”.

**Q.** And the “NO production (in words)” value [5, 10]?
**A.** The value was “significantly attenuated production”.

**Q.** What about the “TNF-α production (in words)” value [5, 10] of the same molecule?
**A.** The value was “significantly attenuated production”.

**Q.** What about the “PGE2 production by splenocytes/macrophages (in words)” value ([5]; traumatized mice + NS-398 over 7 days, P<0.05) of the same molecule?
**A.** Its value is “produce significantly less PGE2”.

**Q.** What about the “cytosolic IκB” value [6] of the same molecule?
**A.** Its value is “an increase in cytosolic IκB”.

**Q.** What about the “Plasma PGE2 Day 1” value ([7]; Control + NS-398) of the same molecule?
**A.** Its value is 24,652 pg/ml.

**Q.** And the “Plasma PGE2 Day 7” value ([7]; Control + NS-398)?
**A.** Its value is 7,244 pg/ml.

**Q.** What about the “Plasma PGE2 Day 1” value ([7]; Trauma + NS-398) of the same molecule?
**A.** Its value is 26,370 pg/ml.

**Q.** What about the “Plasma PGE2 Day 7” value ([7]; Trauma + NS-398) of the same molecule?
**A.** Its value is 4,354 pg/ml.

**Q.** And the “Plasma PGE2 levels (in words)” value ([7]; control and injured mice, 1 and 7 days)?
**A.** Its value is “attenuated in both control and injured mice”.
